From paper PMC2542349, “Pharmacokinetic and metabolic effects of American ginseng (Panax quinquefolius) in healthy volunteers receiving the HIV protease inhibitor indinavir” (BMC Complementary and Alternative Medicine, 2008)
Values joined by “and” are separate entries in the source; they are usually repeats but may differ in a detail not shown here. Equal entries are not always repeated. Where two headings read alike, the source gives them in different places.

Assays:
healthy volunteers [1] = assay: Fasting serum glucose, HOMA-IR and body weight at inpatient visits; format: in vivo, human
Method: Body composition, including fat-free mass (FFM), was assessed at baseline using dual x-ray absorptiometry (Hologic-QDR 4500W, Hologic Co, Bedford, MA, intra-subject CV < 2%). BMI was assessed during each inpatient admission and was calculated as the weight in kilograms/height in meters squared.
(§1) During the final 60 minutes of the insulin clamp procedure, samples were obtained at 10 minutes intervals to determine insulin concentrations. M divided by the average insulin concentration in the final 60 minutes (I), which represents the amount of glucose metabolized per unit of insulin, was used as the primary measure of insulin sensitivity. During the second and third inpatient visits, the morning dose of IDV (and AG for the third inpatient visit) was given immediately prior to the beginning of the insulin clamp procedure. Fasting serum glucose and homeostasis model assessment of insulin resistance (HOMA-IR), a widely used marker of insulin sensitivity, were assessed prior to the insulin clamp procedure at each of the inpatient study visits.

clinical = details: human, plasma, oral
[2] = for Cmin: GM (95%CI)
healthy volunteers [3] = assay: Safety assessment in healthy volunteers; format: in vivo, human
Excerpt: There were no serious adverse events. Three subjects developed transaminitis. In one subject (as previously mentioned), an AST elevation 3 times the upper limit of normal (Grade 2) after 3 days of IDV required study discontinuation. Three subjects were noted to have mild elevations in bilirubin. […] One patient reported an episode of vomiting and one subject reported dyspepsia after dose administration. All laboratory abnormalities and symptoms normalized after discontinuation of the study drugs. With the exception of the Grade 2 transaminites, all adverse events occurred during the co-administration of IDV and AG.

healthy volunteers [4] = details: cited from earlier work
healthy volunteers [5] = assay: Hyperinsulinemic euglycemic clamp (glucose utilization M, insulin sensitivity M/I); format: in vivo, human
Method: Peripheral sensitivity to glucose was assessed by the hyperinsulinemic euglycemic clamp technique. Subjects were admitted to the GCRC in the afternoon prior to the clamp procedure and maintained on a eucaloric diet (50% carbohydrate, 30% fat, and 20% protein). After an overnight fast, an intravenous catheter was placed in the antecubital vein for infusion of glucose and insulin. A second catheter for blood sampling was inserted in a dorsal vein of the hand in a retrograde fashion. The hand was placed into a 50°C warming box to "arterialize" the samples [20]. After baseline blood samples were obtained, a primed, continuous infusion of regular insulin (40 mU/m^2/min) was started, followed by a constant infusion of 20% dextrose at a variable rate, based on 5-minute measurements of blood glucose, in order to maintain blood glucose concentrations at each subject's baseline level ± 5%. Infusion continued for a total of 180 minutes.
Glucose utilization (M) was calculated as the average glucose infusion rate (milligrams of glucose/kilograms of FFM/minute) during the last 60 minutes of the infusion (i.e. steady state portion). FFM was derived from the baseline evaluation by dual energy X-ray absorptiometry (DXA).
as §1, with “During the second and third inpatient visits, the morning dose of IDV (and AG for the third inpatient visit) was given immediately prior to the beginning of the insulin clamp procedure.” left out
We then multiplied this value by 10^6 for ease of interpretation.

## CC(C)(C)NC(=O)[C@@H]1CN(Cc2cccnc2)CCN1C[C@@H](O)C[C@@H](Cc1ccccc1)C(=O)N[C@H]1c2ccccc2C[C@H]1O [IDV, Indinavir]
Healthy volunteers [1]; before vs after 2 weeks of AG, p = 0.65
  Fasting glucose: 93.0 ± 1.4 mg/dL
Healthy volunteers [1]; before vs after 2 weeks of AG, p = 0.95
  HOMA-IR: 1.4± 0.25
Healthy volunteers [1]; second admission (after 3 days IDV), baseline 1.34 ± 0.32, p = 0.97
  HOMA-IR: 1.34 ± 0.23
Healthy volunteers [1]; second admission (after 3 days IDV), baseline 92.4 ± 1.8, p = 0.27
  Fasting glucose: 95.0 ± 2.4 mg/dL
clinical
  AUC: 1920 ± 483 ng·h/mL
clinical; 800 mg
  AUC: 2350 ± 389 ng·h/mL
  Cmax: 5620 ng/mL
  Tmax: 58.8 min
[2]; 10 subjects, p = 0.22
  difference in IDV AUC2–3 (IDV alone vs IDV and AG): 430 ± 330 ng·h/mL
[2]; IDV + AG (Day 22), n = 13
  Cmin: 62.78 (39.72–99.24) ng/mL
[2]; IDV alone (Day 7), n = 13
  Cmin: 61.97 (42.72–89.88) ng/mL
[2]; IDV with vs without AG, n = 13
  AUC0–8 Day 22/Day 7 Geometric Mean Ratio (90% CI): 0.89 (0.72–1.08)
  Cmax Day 22/Day 7 Geometric Mean Ratio (90% CI): 1.00 (0.77–1.29)
  tmax Day 22/Day 7 Geometric Mean Ratio (90% CI): 0.75 (0.53–1.06)
Healthy volunteers [3]; healthy volunteers
  tolerability: well tolerated
Healthy volunteers [3]; one subject, Grade 2, after 3 days of IDV, required study discontinuation
  AST elevation: 3 times the upper limit of normal
Healthy volunteers [4]; healthy volunteers, IDV 800 mg q 8 hours
  decrease in insulin sensitivity: 17%
Healthy volunteers [4]; single dose of 1200 mg
  decrease in insulin sensitivity: 34%
Healthy volunteers [5]; after 3 days of IDV 800 mg q8h, n = 11, p = 0.03
  average decrease in insulin sensitivity (M/I) compared to baseline: 14.8 ± 5.9% and 15%
Healthy volunteers [5]; after 3 days of IDV, n = 11, mean ± SEM, baseline 0.113 ± 0.012
  insulin sensitivity (M/I), mean: 0.096 ± 0.014 mg/kg FFM/min per μU/ml of insulin
Healthy volunteers [5]; after 3 days of IDV, n = 11, mean ± SEM, baseline 7.73 ± 0.75, p = 0.005
  average glucose utilization (M): 6.32 ± 0.78 mg/kg FFM/min
Healthy volunteers [5]; post hoc, 10 subjects, IDV alone vs IDV + AG, p = 0.03
  M/I divided by the IDV AUC2–3 (insulin sensitivity per unit of plasma IDV): 60.9 ± 15.4 mg Glucose·10^6/kg FFM/min/μU/ml of insulin/ng·hr/mL IDV
Healthy volunteers [5]; post hoc, 10 subjects, IDV alone vs IDV plus AG, p = 0.05
  M (multiplied times 10^6) divided by the IDV AUC2–3: 4240.6 ± 1180.0 mg Glucose·10^6/kg FFM/min/ng·hr/mL IDV
Healthy volunteers [5]; second (IDV alone) vs third (IDV + AG) clamp, ten subjects, mean ± SEM, p = 0.62
  Glucose utilization (M), mean: 6.68 ± 0.76 mg/kg FFM/min
Healthy volunteers [5]; second (IDV alone) vs third (IDV + AG) clamp, ten subjects, mean ± SEM, p = 0.72
  insulin sensitivity (M/I), mean: 0.102 ± 0.013 mg/kg FFM/min per μU/ml of insulin
